Assay results taken from patent US9629861B2, “Compositions and methods for treating bacterial infections using ceftaroline” (Forest Laboratories Holdings Limited, priority 2009, dated 2017).
Like-named read-outs stand apart in the source and are kept apart here. Each block holds one compound with its values, some of them ahead of it.

Experiments:
[1] = molecular target: T1, CYP2D6 (Homo sapiens, UniProt P10635); test: CYP inhibition in human liver microsomes; type: in vitro ADME
T1 construct: In vitro studies in human liver microsomes; from tissue; host or cells: human liver microsomes

[2] = molecular target: T2, CYP2C9 (Homo sapiens, UniProt P11712); test: CYP inhibition in human liver microsomes; type: in vitro ADME
T2 construct: In vitro studies in human liver microsomes; from tissue; host or cells: human liver microsomes

[3] = Pharmacokinetics of ceftaroline after IV infusion of ceftaroline fosamil in adults with normal renal function; set-up: species or system human; settings: in vivo
From the text: The standard deviation is shown in brackets.

[4] = tested on: CYP3A4/5; test: CYP induction in human hepatocytes; type: in vitro ADME
[5] = tested on: CYP2C8; settings: human hepatocytes
[6] = tested on: Community-Acquired Bacterial Pneumonia (CABP); test: Phase 3 CABP Study 1 (Example 5, adjunctive clarithromycin); type: in vivo, human; settings: versus ceftriaxone, CABP Study 1
Description: (§1) In both treatment groups of CABP Study 1, two doses of oral clarithromycin (500 mg q12h), were administered as adjunctive therapy starting on Study Day 1. No adjunctive macrolide therapy was used in CABP Study 2. Patients with new or progressive pulmonary infiltrate(s) on chest radiography and clinical signs and symptoms consistent with CABP with the need for hospitalization and IV therapy were enrolled in the studies. Treatment duration was 5 to 7 days. A switch to oral therapy was not allowed. The Modified Intent-to-Treat Efficacy (MITTE) population included all patients who received any amount of study drug according to their randomized treatment group and were in PORT (Pneumonia Outcomes Research Team) Risk Class III or IV.
(§2) The primary efficacy endpoint was the clinical response at the Test of Cure (TOC) visit in the co-primary CE and MITTE populations (Table 4).
(§3) The secondary objective of the study was to evaluate the following: the clinical response at end-of-therapy (EOT); the microbiological favorable outcome rate at TOC; the overall (clinical and radiographic) success rate at TOC; the clinical and microbiological response by pathogen at TOC; clinical relapse at late follow-up (LFU); microbiological reinfection/recurrence at LFU; and safety.
(§4) The primary efficacy outcome measures were the per-subject clinical cure rate at TOC in the CE and MITTE Populations. Subjects were considered clinically cured at TOC if they had total resolution of all signs and symptoms of the baseline infection, or improvement of the infection such that no further antimicrobial therapy was necessary.
(§5) Non-inferiority was concluded if the lower limit of the 95% CI was higher than −10%.

[7] = tested on: CYP2B6; test: CYP induction in human hepatocytes; type: in vitro ADME
[8] = tested on: CYP1A2; settings: human hepatocytes
[9] = molecular target: T3, CYP3A4 (Homo sapiens, UniProt P08684); test: CYP inhibition in human liver microsomes; type: in vitro ADME
T3 construct: In vitro studies in human liver microsomes; from tissue; host or cells: human liver microsomes

[10] = tested on: complicated skin and skin structure infections (cSSSI); test: Phase 3 cSSSI Study 2; type: in vivo, human; settings: versus vancomycin/aztreonam
Description: A total of 1396 adults with clinically documented complicated skin and skin structure infections (cSSSI) were enrolled in two randomized, multi-center, multinational, double-blind, studies comparing 600 mg ceftaroline fosamil administered intravenously over 1 hour every 12 hours to vancomycin plus aztreonam [1 g vancomycin administered intravenously over 1 hour followed by 1 g aztreonam administered intravenously over 1 hour every 12 hours]. Patients with cSSSI (deep/extensive cellulitis, a major abscess, a wound infection [surgical or traumatic], infected insect bites, burns or ulcers, lower extremity infection in patients with diabetes mellitus or peripheral vascular disease), were enrolled in the studies. Treatment duration was 5 to 14 days. A switch to oral therapy was not allowed. The Modified Intent-to-Treat (MITT) population included all patients who received any amount of study drug according to their randomized treatment group.
The primary efficacy endpoint was clinical response at the Test of Cure (TOC) visit in the co-primary CE and MITT populations (Table 2). […] In a subgroup analysis (CE population), the comparative clinical cure rates between the ceftaroline group and the vancomycin plus aztreonam group were not affected by age, gender, race, ethnicity, or weight.

[11] = molecular target: T4, CYP2E1 (Homo sapiens, UniProt P05181); test: CYP inhibition in human liver microsomes; type: in vitro ADME
T4 construct: In vitro studies in human liver microsomes; from tissue; host or cells: human liver microsomes

[12] = tested on: Haemophilus parainfluenzae; settings: ME patients with CABP
[13] = molecular target: T5, CYP2B6 (Homo sapiens, UniProt P20813); test: CYP inhibition in human liver microsomes; type: in vitro ADME
T5 construct: In vitro studies in human liver microsomes; from tissue; host or cells: human liver microsomes

[14] = molecular target: T6, CYP2C19 (Homo sapiens, UniProt P33261); test: CYP inhibition in human liver microsomes; type: in vitro ADME
T6 construct: In vitro studies in human liver microsomes; from tissue; host or cells: human liver microsomes

[15] = tested on: CYP2C9; test: CYP induction in human hepatocytes; type: in vitro ADME
[16] = Safety, four pooled controlled comparative Phase 3 studies (two cSSSI, two CABP); type: in vivo, human; settings: pooled Phase 3 studies
Description: Ceftaroline fosamil was evaluated in four controlled comparative Phase 3 clinical studies (two in cSSSI and two in CABP).

[17] = molecular target: T7, CYP2A6 (Homo sapiens, UniProt P11509); test: CYP inhibition in human liver microsomes; type: in vitro ADME
T7 construct: In vitro studies in human liver microsomes; from tissue; host or cells: human liver microsomes

[18] = Aqueous solubility; type: physicochemical; settings: with L-arginine, depending on the molarity of the solution
From the text: In further embodiments, the compositions may comprise L-arginine.

[19] = molecular target: T8, CYP1A1 (Homo sapiens, UniProt P04798); test: CYP inhibition in human liver microsomes; type: in vitro ADME
T8 construct: In vitro studies in human liver microsomes; from tissue; host or cells: human liver microsomes

[20] = molecular target: CYP1A2 (Homo sapiens, UniProt P05177); type: in vitro ADME; settings: human liver microsomes
[21] = tested on: CYP2C19; settings: human hepatocytes
[22] = molecular target: T9, CYP2C8 (Homo sapiens, UniProt P10632); test: CYP inhibition in human liver microsomes; type: in vitro ADME
T9 construct: In vitro studies in human liver microsomes; from tissue; host or cells: human liver microsomes

[23] = tested on: Community-Acquired Bacterial Pneumonia (CABP); test: Two Phase 3 studies in CABP, integrated; type: in vivo, human; settings: versus ceftriaxone, integrated CABP studies
Description: as §1
The primary efficacy endpoint was the clinical response at the Test of Cure (TOC) visit in the co-primary CE and MITTE populations (Table 4). In a subgroup analysis (CE population), the comparative clinical cure rates between the ceftaroline group and the ceftriaxone group were not affected by age, gender, race, ethnicity, or weight.

[24] = tested on: Community-Acquired Bacterial Pneumonia (CABP); test: Phase 3 CABP Study 2 (Example 4, no adjunctive macrolide); type: in vivo, human; settings: for Treatment Difference in clinical cure rate at TOC: versus ceftriaxone, CABP Study 2
Description: as §1, §2
as §3, with “objectives” for “objective”, “were” for “was”, “following:” for “following: the”
as §4, with “The following criteria were used for evaluation: The primary” for “The primary”, “rate at test-of-cure (TOC) in the” for “rate at TOC in the”
as §5

[25] = Example 5
[26] = Example 4
[27] = Safety population, listed as ceftriaxone

T1 sequence (P10635 whole entry): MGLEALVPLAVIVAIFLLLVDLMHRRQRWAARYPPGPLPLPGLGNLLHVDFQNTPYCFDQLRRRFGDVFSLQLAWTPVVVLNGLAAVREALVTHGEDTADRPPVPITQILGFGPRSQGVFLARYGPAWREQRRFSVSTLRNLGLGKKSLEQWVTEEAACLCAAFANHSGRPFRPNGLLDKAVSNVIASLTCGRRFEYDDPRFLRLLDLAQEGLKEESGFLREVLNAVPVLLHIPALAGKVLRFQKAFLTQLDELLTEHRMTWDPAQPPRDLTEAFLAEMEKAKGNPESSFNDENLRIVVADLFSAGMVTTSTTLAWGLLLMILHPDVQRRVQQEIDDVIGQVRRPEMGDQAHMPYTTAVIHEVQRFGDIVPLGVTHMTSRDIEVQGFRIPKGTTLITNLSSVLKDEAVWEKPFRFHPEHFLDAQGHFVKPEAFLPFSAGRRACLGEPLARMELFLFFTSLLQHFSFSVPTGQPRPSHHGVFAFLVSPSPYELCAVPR
T9 sequence (P10632 whole entry): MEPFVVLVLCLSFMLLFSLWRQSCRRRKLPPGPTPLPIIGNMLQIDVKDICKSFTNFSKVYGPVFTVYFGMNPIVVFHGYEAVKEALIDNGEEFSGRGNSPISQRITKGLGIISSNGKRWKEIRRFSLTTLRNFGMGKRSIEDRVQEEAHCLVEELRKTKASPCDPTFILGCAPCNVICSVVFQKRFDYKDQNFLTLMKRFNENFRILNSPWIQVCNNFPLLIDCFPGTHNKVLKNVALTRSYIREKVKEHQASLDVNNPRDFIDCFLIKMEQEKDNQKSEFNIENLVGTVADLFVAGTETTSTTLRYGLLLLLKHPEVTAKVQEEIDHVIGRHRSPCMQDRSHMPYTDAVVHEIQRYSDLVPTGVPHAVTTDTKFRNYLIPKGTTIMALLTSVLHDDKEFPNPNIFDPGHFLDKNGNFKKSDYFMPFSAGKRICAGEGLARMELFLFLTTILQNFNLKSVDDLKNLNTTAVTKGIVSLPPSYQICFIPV
T8 sequence (P04798 whole entry): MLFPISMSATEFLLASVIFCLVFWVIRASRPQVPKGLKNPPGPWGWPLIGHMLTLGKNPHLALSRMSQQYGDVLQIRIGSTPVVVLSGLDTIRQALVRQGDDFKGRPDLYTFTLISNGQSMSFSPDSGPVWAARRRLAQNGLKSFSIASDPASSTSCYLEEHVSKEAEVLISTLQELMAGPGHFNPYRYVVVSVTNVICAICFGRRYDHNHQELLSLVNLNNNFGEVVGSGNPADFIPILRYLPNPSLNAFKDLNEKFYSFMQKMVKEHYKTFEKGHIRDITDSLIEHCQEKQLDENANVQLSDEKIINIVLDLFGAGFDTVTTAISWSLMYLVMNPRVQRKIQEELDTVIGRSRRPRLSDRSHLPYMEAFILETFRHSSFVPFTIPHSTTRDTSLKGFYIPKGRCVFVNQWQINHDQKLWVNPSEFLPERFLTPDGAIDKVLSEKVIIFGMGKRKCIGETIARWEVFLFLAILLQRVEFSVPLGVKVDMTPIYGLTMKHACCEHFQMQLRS
T3 sequence (P08684 whole entry): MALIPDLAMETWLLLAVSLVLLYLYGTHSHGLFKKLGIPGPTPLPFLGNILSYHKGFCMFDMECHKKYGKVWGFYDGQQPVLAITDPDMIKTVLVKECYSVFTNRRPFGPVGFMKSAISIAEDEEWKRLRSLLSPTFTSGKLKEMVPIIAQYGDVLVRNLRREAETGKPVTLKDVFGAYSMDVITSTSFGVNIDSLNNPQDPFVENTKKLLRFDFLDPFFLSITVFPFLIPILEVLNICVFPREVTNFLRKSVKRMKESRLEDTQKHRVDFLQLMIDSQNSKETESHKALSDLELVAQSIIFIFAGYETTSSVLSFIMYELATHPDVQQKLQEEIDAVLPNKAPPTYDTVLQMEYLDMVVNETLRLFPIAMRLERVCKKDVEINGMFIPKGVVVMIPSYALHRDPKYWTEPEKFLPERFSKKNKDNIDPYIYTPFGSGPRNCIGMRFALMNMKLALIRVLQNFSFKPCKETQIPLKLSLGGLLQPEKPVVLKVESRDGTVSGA
T6 sequence (P33261 whole entry): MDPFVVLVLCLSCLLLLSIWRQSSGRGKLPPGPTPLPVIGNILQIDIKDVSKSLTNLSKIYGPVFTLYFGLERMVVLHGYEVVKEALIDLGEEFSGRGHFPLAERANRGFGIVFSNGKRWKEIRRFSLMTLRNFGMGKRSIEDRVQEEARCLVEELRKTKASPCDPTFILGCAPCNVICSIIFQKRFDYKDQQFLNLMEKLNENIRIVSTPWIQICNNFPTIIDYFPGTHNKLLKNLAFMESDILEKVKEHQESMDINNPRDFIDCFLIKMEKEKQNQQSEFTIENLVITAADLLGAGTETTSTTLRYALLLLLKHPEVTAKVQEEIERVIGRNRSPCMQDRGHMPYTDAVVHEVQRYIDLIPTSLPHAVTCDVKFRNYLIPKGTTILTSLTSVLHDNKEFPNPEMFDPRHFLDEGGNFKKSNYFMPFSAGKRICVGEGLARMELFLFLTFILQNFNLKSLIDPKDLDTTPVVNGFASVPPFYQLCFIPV
T2 sequence (P11712 whole entry): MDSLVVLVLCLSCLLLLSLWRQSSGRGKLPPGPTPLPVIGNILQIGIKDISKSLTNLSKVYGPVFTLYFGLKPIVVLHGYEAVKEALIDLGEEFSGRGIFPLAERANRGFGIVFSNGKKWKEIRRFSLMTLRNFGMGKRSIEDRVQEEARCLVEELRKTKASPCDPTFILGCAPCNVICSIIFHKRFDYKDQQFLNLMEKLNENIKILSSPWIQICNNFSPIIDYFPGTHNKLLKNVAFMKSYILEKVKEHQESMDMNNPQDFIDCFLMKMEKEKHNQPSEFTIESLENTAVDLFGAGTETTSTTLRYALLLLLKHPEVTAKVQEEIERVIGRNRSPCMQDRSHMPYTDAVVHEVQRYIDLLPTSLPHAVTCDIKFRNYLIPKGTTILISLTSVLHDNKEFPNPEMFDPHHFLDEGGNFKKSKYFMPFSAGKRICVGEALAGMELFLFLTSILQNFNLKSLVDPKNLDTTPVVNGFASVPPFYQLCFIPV
T5 sequence (P20813 whole entry): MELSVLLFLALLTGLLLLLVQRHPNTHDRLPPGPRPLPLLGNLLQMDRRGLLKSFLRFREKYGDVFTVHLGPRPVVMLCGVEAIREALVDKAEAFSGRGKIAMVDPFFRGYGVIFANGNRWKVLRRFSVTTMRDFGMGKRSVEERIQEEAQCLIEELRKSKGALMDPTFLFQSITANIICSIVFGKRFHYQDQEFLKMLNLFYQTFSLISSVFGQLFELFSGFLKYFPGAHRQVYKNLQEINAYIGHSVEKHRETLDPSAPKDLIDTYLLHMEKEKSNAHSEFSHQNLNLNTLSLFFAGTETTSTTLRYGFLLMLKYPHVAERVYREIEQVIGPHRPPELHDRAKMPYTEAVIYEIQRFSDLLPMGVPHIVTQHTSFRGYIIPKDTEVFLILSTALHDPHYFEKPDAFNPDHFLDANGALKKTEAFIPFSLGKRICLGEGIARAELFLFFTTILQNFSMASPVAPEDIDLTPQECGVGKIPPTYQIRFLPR
Sequence of CYP1A2 (Homo sapiens, UniProt P05177) (P05177 whole entry): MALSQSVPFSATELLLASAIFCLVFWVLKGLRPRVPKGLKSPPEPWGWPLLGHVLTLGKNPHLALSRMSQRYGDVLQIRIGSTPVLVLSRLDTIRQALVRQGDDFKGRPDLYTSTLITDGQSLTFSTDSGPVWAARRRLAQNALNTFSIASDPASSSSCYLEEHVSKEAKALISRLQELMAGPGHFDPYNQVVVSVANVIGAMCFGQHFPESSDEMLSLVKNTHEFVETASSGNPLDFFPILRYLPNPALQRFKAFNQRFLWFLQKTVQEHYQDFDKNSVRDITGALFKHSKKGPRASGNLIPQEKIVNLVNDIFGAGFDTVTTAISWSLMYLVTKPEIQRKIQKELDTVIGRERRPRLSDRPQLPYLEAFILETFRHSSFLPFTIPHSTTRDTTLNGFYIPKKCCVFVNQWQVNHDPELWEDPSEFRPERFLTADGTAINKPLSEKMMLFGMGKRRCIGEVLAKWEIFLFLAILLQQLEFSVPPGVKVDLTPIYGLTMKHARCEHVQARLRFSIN
T7 sequence (P11509 whole entry): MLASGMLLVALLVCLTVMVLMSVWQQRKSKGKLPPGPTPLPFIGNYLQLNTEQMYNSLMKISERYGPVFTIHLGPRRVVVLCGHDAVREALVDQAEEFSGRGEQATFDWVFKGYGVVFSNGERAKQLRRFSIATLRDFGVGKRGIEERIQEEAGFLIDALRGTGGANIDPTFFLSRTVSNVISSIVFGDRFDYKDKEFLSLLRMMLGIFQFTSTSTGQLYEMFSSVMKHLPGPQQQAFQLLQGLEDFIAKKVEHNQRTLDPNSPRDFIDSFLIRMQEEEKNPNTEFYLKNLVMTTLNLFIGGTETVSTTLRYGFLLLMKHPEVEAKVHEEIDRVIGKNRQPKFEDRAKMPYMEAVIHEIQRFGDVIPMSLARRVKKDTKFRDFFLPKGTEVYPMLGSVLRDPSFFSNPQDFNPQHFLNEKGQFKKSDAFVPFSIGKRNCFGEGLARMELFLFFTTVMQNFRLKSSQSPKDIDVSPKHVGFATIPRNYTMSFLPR
T4 sequence (P05181 whole entry): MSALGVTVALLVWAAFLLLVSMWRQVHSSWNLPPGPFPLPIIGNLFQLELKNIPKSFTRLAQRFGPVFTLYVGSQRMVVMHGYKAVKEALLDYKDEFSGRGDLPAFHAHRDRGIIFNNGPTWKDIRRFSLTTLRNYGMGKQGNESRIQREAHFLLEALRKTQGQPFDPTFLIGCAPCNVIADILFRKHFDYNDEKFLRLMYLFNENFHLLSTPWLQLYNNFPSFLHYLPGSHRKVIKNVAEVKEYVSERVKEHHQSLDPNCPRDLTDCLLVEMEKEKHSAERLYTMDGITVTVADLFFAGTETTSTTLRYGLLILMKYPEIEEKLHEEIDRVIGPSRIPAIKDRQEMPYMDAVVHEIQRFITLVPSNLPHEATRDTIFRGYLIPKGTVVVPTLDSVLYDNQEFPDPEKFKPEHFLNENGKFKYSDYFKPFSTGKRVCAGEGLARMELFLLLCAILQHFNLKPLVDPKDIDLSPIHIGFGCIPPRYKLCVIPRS

Compound: CCO/N=C(\C(=O)N[C@@H]1C(=O)N2C(C(=O)[O-])=C(Sc3nc(-c4cc[n+](C)cc4)cs3)CS[C@H]12)c1nsc(NP(=O)(O)O)n1 [Ceftaroline fosamil, (6R,7R)-7-{(2Z)-2-(ethoxyimino)-2-[5-(phosphonoamino)-1,2,4-thiadiazol-3-yl]acetamido}-3-{[4-(1-methylpyridin-1-ium-4-yl)-1,3-thiazol-2-yl]sulfanyl}-8-oxo-5-thia-1-azabicyclo[4.2.0]oct-2-ene-2-carboxylate]
- inhibition of CYP2D6 [1]: neither ceftaroline fosamil nor ceftaroline inhibits
- inhibition of CYP2C9 [2]: neither ceftaroline fosamil nor ceftaroline inhibits
- conversion of prodrug in plasma [3]: rapidly converted into bioactive ceftaroline in plasma
- induction of CYP3A4/5 [4]: not inducers
- induction of CYP2C8 [5]: not inducers
- Treatment Difference in clinical cure rate at TOC ([6]; CE): 8.4 (1.4, 15.4) %
- Treatment Difference in clinical cure rate at TOC ([6]; MITTE): 6.2 (−0.2, 12.6) %
- induction of CYP2B6 [7]: not inducers
- induction of CYP1A2 [8]: not inducers
- inhibition of CYP3A4 [9]: neither ceftaroline fosamil nor ceftaroline inhibits
- Treatment Difference (2-sided 95% CI) ([10]; CE): 0.1 (−4.4., 4.5)
- Treatment Difference (2-sided 95% CI) ([10]; MITT): −0.4 (−5.8, 5.0)
- inhibition of CYP2E1 [11]: neither ceftaroline fosamil nor ceftaroline inhibits
- Clinical Cure Rate by Infecting Pathogen [12]: 16/16 (100%)
- inhibition of CYP2B6 [13]: neither ceftaroline fosamil nor ceftaroline inhibits
- inhibition of CYP2C19 [14]: neither ceftaroline fosamil nor ceftaroline inhibits
- induction of CYP2C9 [15]: not inducers
- highest incidence of any adverse reaction [16]: ≤ 5%
- hypersensitivity leading to discontinuation [16]: 0.3%
- inhibition of CYP2A6 [17]: neither ceftaroline fosamil nor ceftaroline inhibits
- solubility [18]: more than 200 mg per ml
- inhibition of CYP1A1 [19]: neither ceftaroline fosamil nor ceftaroline inhibits
- inhibition of CYP1A2 [20]: neither ceftaroline fosamil nor ceftaroline inhibits
- induction of CYP2C19 [21]: not inducers
- inhibition of CYP2C8 [22]: neither ceftaroline fosamil nor ceftaroline inhibits
- Treatment Difference in clinical cure rate at TOC ([23]; CE): 6.7 (1.6, 11.8) %
- Treatment Difference in clinical cure rate at TOC ([23]; MITTE): 6.0 (1.4, 10.7) %
- Treatment Difference in clinical cure rate at TOC ([24]; CE): 4.9 (−2.5, 12.5) %
- Treatment Difference in clinical cure rate at TOC ([24]; MITTE): 5.9 (−1.0, 12.7) %

Compound: CO/N=C(\C(=O)N[C@@H]1C(=O)N2C(C(=O)O)=C(CSc3nc(=O)c(=O)[nH]n3C)CS[C@H]12)c1csc(N)n1 [Ceftriaxone, reference compound]
- TEAEs leading to premature discontinuation from study drug administration [25]: 3.9%
- subjects with SAEs considered possibly or probably related to study drug [25]: 5 subjects
- Early withdrawal from study, reason Adverse Event ([25]; MITTE population): 7 (2.3) %
- Any AE (TEAE), subjects ([25]; Safety population): 136 (44.2) %
- Constipation, subjects ([25]; Safety population): 5 (1.6) %
- Diarrhea, subjects ([25]; Safety population): 7 (2.3) %
- Headache, subjects ([25]; Safety population): 4 (1.3) %
- Hypertension, subjects ([25]; Safety population): 8 (2.6) %
- Hypokalemia, subjects ([25]; Safety population): 10 (3.2) %
- Insomnia, subjects ([25]; Safety population): 6 (1.9) %
- Nausea, subjects ([25]; Safety population): 8 (2.6) %
- Phlebitis, subjects ([25]; Safety population): 5 (1.6) %
- Any AE (TEAE), subjects [25, 27]: 44.2%
- Diarrhea, subjects [25, 27]: 2.3%
- Headache, subjects [25, 27]: 1.3%
- TEAEs leading to premature discontinuation from study drug administration [26]: 1.3%
- any study-drug-related TEAEs, subjects [26]: 13.7%
- study-drug-related TEAE: headache [26]: 1.0%
- Early withdrawal from study, reason Adverse Event ([26]; MITTE population): 7 (2.6) %
- Any AE (TEAE), subjects ([26]; Safety population): 145 (47.2) %
- COPD, subjects ([26]; Safety population): 5 (1.6) %
- Diarrhea, subjects ([26]; Safety population): 9 (2.9) %
- Headache, subjects ([26]; Safety population): 5 (1.6) %
- Hypertension, subjects ([26]; Safety population): 8 (2.6) %
- Hypokalemia, subjects ([26]; Safety population): 5 (1.6) %
- Insomnia, subjects ([26]; Safety population): 8 (2.6) %
- Nausea, subjects ([26]; Safety population): 6 (2.0) %
- Phlebitis, subjects ([26]; Safety population): 8 (2.6) %
- Pleural effusion, subjects ([26]; Safety population): 7 (2.3) %
- Pneumonia, subjects ([26]; Safety population): 4 (1.3) %
- Any AE (TEAE), subjects [26, 27]: 47.2%
- Clinical Cure Rate by Infecting Pathogen [12]: 15/17 (88.2%)
- Per-subject Clinical Cure Rate at the EOT Visit ([24]; MITTE population, Example 4): 215 (78.8) %
- Favorable Microbiological Outcome at the TOC Visit ([24]; mMITTE population, Example 4): 72 (81.8) %

- induction of CYP3A4/5 [4]: not inducers
- induction of CYP2C8 [5]: not inducers
- induction of CYP2B6 [7]: not inducers
- induction of CYP1A2 [8]: not inducers
- induction of CYP2C9 [15]: not inducers
- induction of CYP2C19 [21]: not inducers
Compound: CCO/N=C(\C(=O)N[C@H](C(=O)[O-])[C@@H]1NC(C(=O)[O-])=C(Sc2nc(-c3cc[n+](C)cc3)cs2)CS1)c1nsc(N)n1.[H+] [ceftaroline M-1]
